# Assay results taken from US9290488B2, “Azetidine-substituted quinoxalines as opioid receptor like-1 modulators” (priority 2011, dated 2016).
# Where two headings read alike, the source gives them in different places.
# Columns and labels:
# [1] = In vitro metabolic stability, rat liver microsomes; settings: for Metabolic Stability (%) Rat: % of compound remaining after 30 min incubation at 37° C., 2 μM, 0.5 mg/mL rat liver microsomes
# [2] = In vitro metabolic stability, human liver microsomes; settings: % of compound remaining after 30 min incubation at 37° C., 2 μM, 0.5 mg/mL human liver microsomes
# [3] = In vitro assay of free unbound compound (equilibrium dialysis of rat serum); settings: for Free Unbound Drug Fraction (%): rat serum, 2 μg/mL, 24 h equilibrium dialysis at 37° C. against PBS
# [4] = male, Crj:CD (SD), pH 7.4
Compound,Metabolic Stability (%) Rat [1] [%],Metabolic Stability (%) Human [2] [%],Free Unbound Drug Fraction (%) [3] [%],"free unbound drug fraction, times greater than counterpart d=2 compound ([3]; ratio B20a(ii) / CC02, rat serum)","metabolic stability upon exposure to rat liver microsomes, times greater than counterpart d=2 compound [4] [times]","metabolic stability upon exposure to rat liver microsomes, times greater than counterpart d=2 compound ([1]; ratio d=1 compound / d=2 counterpart, rat liver microsomes)"
CC[C@@H]1C[C@@H]2C[C@H](C1)C[C@@H](N1[C@@H]3CCC[C@H]1C[C@@H](n1c(=O)c(N4CC[C@H]4C(=O)O)nc4ccccc41)C3)C2 [B20a(ii)],84,70,3.3,over 2.7 times,–,–
O=C(O)[C@@H]1CCN1c1nc2ccccc2n([C@H]2C[C@H]3COC[C@@H](C2)N3[C@H]2C[C@@H]3CCC[C@@H](C3)C2)c1=O [C2a(ii)],86,67,–,–,2.6,–
CC12C[C@H]3C[C@@H](N4[C@@H]5COC[C@H]4C[C@@H](n4c(=O)c(N6CC[C@H]6C(=O)O)nc6ccccc64)C5)C[C@@H]1C[C@@H]2C3 [C20a(ii)],62,6.5,–,–,–,over 4.4 times
"O=C(O)[C@@H]1CCCN1c1nc2ccccc2n([C@H]2C[C@H]3CCC[C@@H](C2)N3[C@H]2C[C@@H]3CCC[C@@H](C3)C2)c1=O [CC01, reference compound]",100,–,–,–,–,–
"CC12C[C@H]3C[C@@H](N4[C@@H]5CCC[C@H]4C[C@@H](n4c(=O)c(N6CCC[C@H]6C(=O)O)nc6ccccc64)C5)C[C@@H]1C[C@@H]2C3 [CC02, reference compound]",97,58,1.2,–,–,–
"O=C(O)[C@@H]1CCCN1c1nc2ccccc2n([C@H]2C[C@H]3COC[C@@H](C2)N3[C@H]2C[C@@H]3CCC[C@@H](CC3)C2)c1=O [CC03, reference compound]",33,60,–,–,–,–
"CC12C[C@H]3C[C@@H](N4[C@@H]5COC[C@H]4C[C@@H](n4c(=O)c(N6CCC[C@H]6C(=O)O)nc6ccccc64)C5)C[C@@H]1C[C@@H]2C3 [CC04, reference compound]",14,21,–,–,–,–
